Test results reported in PubChem BioAssay AID2060908 (Molecular Pharmacology Branch, DTP, NCI, 2025).
Blank lines part the entries; values can stand above or below the molecule they belong to.

System: 186277-243-T-J2-PDC complex spheroids, viability
Experiment: Anticancer human tumor 186277-243-T-J2-PDC patient-derived colon adenocarcinoma cell line growth inhibition [RAS]
Conditions: for IC50: curve of first compound; for viability, T/C: stronger effect = lower value
Text: RAS pathway inhibitors in Combinations in Complex Spheroids
A high-throughput screen of multi-cell type tumor spheroids was designed to identify active combinations of RAS pathway inhibitors and targeted small molecules. Complex spheroids include a stromal component modeled by human endothelial cells (HUVEC) and fibroblasts modeled by human mesenchymal stem cells (MSCs). The concentration ranges selected for each drug and investigational agent were based upon clinically achievable concentrations if the clinical Cmax of the agent was known.
Compounds. The drugs and investigational agents: abemaciclib (NSC768073), cobimetinib (NSC768068), divarasib (GDC6063, NSC841802), docetaxel (NSC628503), GDC-1971 (RLY-1971, NSC841576), gemcitabine (NSC613327), inavolisib (NSC800729), ipatasertib (NSC767898), KB-0742 (NSC834161), MRTX-1133 (NSC836407), osimertinib (NSC779217), RMC-4630 (NSC839698), RMC-6236 (NSC851965), RMC-6291 (NSC852671), Ro-3306 (NSC812927), sapanisertib (NSC764658), SN-38 (NSC673596), staurosporine (NSC755774), SY5609 (NSC837396), and tovorafenib (DAY101, NSC766906), were obtained from the National Cancer Institute (NCI) Developmental Therapeutics Program Chemical Repository. The FDA-approved anticancer drug set is available from the NCI Developmental Therapeutics Program. […] The stock solutions were prepared in dimethyl sulfoxide (DMSO, Sigma-Aldrich, St. Louis, MO, cat. D2650) at 800-fold the tested concentration and stored at -70 degrees C prior to their use. All drugs and investigational agents were tested over a range starting from a high concentration at or near the clinical Cmax and decreasing in half-log increments. If the clinical Cmax for an agent had not been determined, the highest concentration tested was 10 microM.
Cell Culture. All cells were maintained in an incubator at 37 degrees C and 5% CO2 with 95% humidity. The PDC lines were cultured according to standard operating procedures established by the NCI PDMR. All PDCs were thawed and cultured in Matrigel-coated flasks prepared with a working solution of 1X Ham's F-12 nutrient mix, without supplementation (Invitrogen, Waltham, MA, cat. 11765054), 100 U/mL penicillin-streptomycin (Invitrogen, cat. 15140122), and 2.5% Matrigel (Corning Inc., Corning, NY, cat. 354248) for the first three passages. The 362531-283-R-J2-PDC and 782815-120-R-J1-PDC lines were cultured in 6C/Colon 1B media, which includes advanced DMEM/F-12 (Thermo Fisher Scientific, cat. 12634028), 10 mM HEPES (Thermo Fisher Scientific, cat. 15630080), 1X GlutaMAX supplement (Thermo Fisher Scientific, cat. 35050061), 0.1 mg/mL primocin (InvivoGen, San Diego, CA, cat. ant-pm-2), 10% defined fetal bovine serum, heat inactivated (HyClone Laboratories Inc., Logan, UT, cat. SH30070.03HI), 50% L-WRN conditioned media (ATCC, cat. CRL-3276), 1.25 mM N-Acetyl-L-cysteine (Sigma-Aldrich, cat. A9165), 10 mM nicotinamide (Sigma-Aldrich, cat. N0636), 1X B-27 supplement (Thermo Fisher Scientific, cat. 17504044), 1X N-2 supplement (Thermo Fisher Scientific, cat. 17502048), 50 ng/mL human EGF (Thermo Fisher Scientific, cat. PHG0311), and 10 microM Y-27632 dihydrochloride (Tocris Bioscience, cat. 1254). The K12877-001-R-J1-PDC line was cultured in 6I media, which includes all 6C/Colon 1B media plus 10 ng/mL human FGF-10 (PeproTech, cat. 100-26), 1 ng/mL human FGF-2 (PeproTech, cat. 100-18B), 1 µM prostaglandin E2 (Tocris Bioscience, cat. 2296), […] hydrocortisone (Sigma-Aldrich, cat. H4001), and […] bovine insulin (Sigma-Aldrich, cat. I6634). The K86415-001-R-J1-PDC line was cultured in 6D media, which includes all 6C/Colon 1B media components minus the L-WRN conditioned media. The 485176-168-R4-J1-PDC was cultured in PANC media, which includes all 6C/Colon 1B media plus 100 ng/mL human FGF-10 (PeproTech, cat. 100-26), 500 nM SB-431542 (Selleckchem, cat. S1067), and 10 nM gastrin (Tocris Bioscience, cat. 3006). […]

[1] = second compound 0.0316 µM, first compound 0.00316 µM
[2] = second compound 0.0316 µM, first compound 0.01 µM
[3] = second compound 0.0316 µM, first compound 0.0316 µM
[4] = second compound 0.0316 µM, first compound 0.1 µM
[5] = second compound 0.0316 µM, first compound 0.316 µM
[6] = second compound 0.0316 µM, first compound 1 µM
[7] = second compound 0.1 µM, first compound 0.00316 µM
[8] = second compound 0.1 µM, first compound 0.01 µM
[9] = second compound 0.1 µM, first compound 0.0316 µM
[10] = second compound 0.1 µM, first compound 0.1 µM
[11] = second compound 0.1 µM, first compound 0.316 µM
[12] = second compound 0.1 µM, first compound 1 µM
[13] = second compound 0.316 µM, first compound 0.00316 µM
[14] = second compound 0.316 µM, first compound 0.01 µM
[15] = second compound 0.316 µM, first compound 0.0316 µM
[16] = second compound 0.316 µM, first compound 0.1 µM
[17] = second compound 0.316 µM, first compound 0.316 µM
[18] = second compound 0.316 µM, first compound 1 µM
[19] = second compound 1 µM, first compound 0.00316 µM
[20] = second compound 1 µM, first compound 0.01 µM
[21] = second compound 1 µM, first compound 0.0316 µM
[22] = second compound 1 µM, first compound 0.1 µM
[23] = second compound 1 µM, first compound 0.316 µM
[24] = second compound 1 µM, first compound 1 µM
[25] = second compound 3.16 µM, first compound 0.00316 µM
[26] = second compound 3.16 µM, first compound 0.01 µM
[27] = second compound 3.16 µM, first compound 0.0316 µM
[28] = second compound 3.16 µM, first compound 0.1 µM
[29] = second compound 3.16 µM, first compound 0.316 µM
[30] = second compound 3.16 µM, first compound 1 µM
[31] = second compound 10 µM, first compound 0.00316 µM
[32] = second compound 10 µM, first compound 0.01 µM
[33] = second compound 10 µM, first compound 0.0316 µM
[34] = second compound 10 µM, first compound 0.1 µM
[35] = second compound 10 µM, first compound 0.316 µM
[36] = second compound 10 µM, first compound 1 µM
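Also: spheroids exposed to compounds for 7 days before viability read.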

- IC50 (second compound 0.0316 µM): 97.4 nM
- IC50 (second compound 0.1 µM): 34.5 nM
- IC50 (second compound 0.316 µM): < 3.16 nM
- IC50 (second compound 1 µM): < 3.16 nM
- IC50 (second compound 3.16 µM): < 3.16 nM
- IC50 (second compound 10 µM): < 3.16 nM
SMILES: C=CC(=O)Nc1cc(Nc2nccc(-c3cn(C)c4ccccc34)n2)c(OC)cc1N(C)CCN(C)C + C#Cc1c(F)ccc2cc(O)cc(-c3ncc4c(N5CC6CCC(C5)N6)nc(OCC56CCCN5CC(F)C6)nc4c3F)c12
- viability, T/C [1]: 67.1%
- viability, T/C [2]: 76.4%
- viability, T/C [3]: 69.8%
- viability, T/C [4]: 37.6%
- viability, T/C [5]: 40.9%
- viability, T/C [6]: 15%
- viability, T/C [7]: 51.4%
- viability, T/C [8]: 61.5%
- viability, T/C [9]: 52.3%
- viability, T/C [10]: 28.4%
- viability, T/C [11]: 16.5%
- viability, T/C [12]: 8.02%
- viability, T/C [13]: 23.2%
- viability, T/C [14]: 31.3%
- viability, T/C [15]: 22.7%
- viability, T/C [16]: 13.8%
- viability, T/C [17]: 10.4%
- viability, T/C [18]: 6.25%
- viability, T/C [19]: 15.8%
- viability, T/C [20]: 18%
- viability, T/C [21]: 13.4%
- viability, T/C [22]: 11.4%
- viability, T/C [23]: 8.84%
- viability, T/C [24]: 6.02%
- viability, T/C [25]: 10.4%
- viability, T/C [26]: 12.5%
- viability, T/C [27]: 11.1%
- viability, T/C [28]: 8.84%
- viability, T/C [29]: 7.79%
- viability, T/C [30]: 4.87%
- viability, T/C [31]: 9.04%
- viability, T/C [32]: 8.39%
- viability, T/C [33]: 8.64%
- viability, T/C [34]: 7.72%
- viability, T/C [35]: 6.69%
- viability, T/C [36]: 3.95%

- IC50 (second compound 0.0316 µM): < 31.6 nM
- IC50 (second compound 0.1 µM): < 31.6 nM
- IC50 (second compound 0.316 µM): < 31.6 nM
- IC50 (second compound 1 µM): < 31.6 nM
- IC50 (second compound 3.16 µM): < 31.6 nM
- IC50 (second compound 10 µM): < 31.6 nM
SMILES: CC(Nc1ccc2c(c1)OCCn1cc(N3C(=O)OCC3C(F)F)nc1-2)C(N)=O (stereo unspecified) + C#Cc1c(F)ccc2cc(O)cc(-c3ncc4c(N5CC6CCC(C5)N6)nc(OCC56CCCN5CC(F)C6)nc4c3F)c12
- viability, T/C [3]: 45.9%
- viability, T/C [4]: 39.7%
- viability, T/C [5]: 16.1%
- viability, T/C [6]: 7.04%
- viability, T/C (second compound 0.0316 µM, first compound 3.16 µM): 3.9%
- viability, T/C (second compound 0.0316 µM, first compound 10 µM): 3.75%
- viability, T/C [9]: 25.7%
- viability, T/C [10]: 16%
- viability, T/C [11]: 4.89%
- viability, T/C [12]: 2.76%
- viability, T/C (second compound 0.1 µM, first compound 3.16 µM): 1.89%
- viability, T/C (second compound 0.1 µM, first compound 10 µM): 2.88%
- viability, T/C [15]: 18.2%
- viability, T/C [16]: 7.51%
- viability, T/C [17]: 2.9%
- viability, T/C [18]: 2.32%
- viability, T/C (second compound 0.316 µM, first compound 3.16 µM): 1.28%
- viability, T/C (second compound 0.316 µM, first compound 10 µM): 1.02%
- viability, T/C [21]: 9.56%
- viability, T/C [22]: 5.56%
- viability, T/C [23]: 2.6%
- viability, T/C [24]: 1.95%
- viability, T/C (second compound 1 µM, first compound 3.16 µM): 1.11%
- viability, T/C (second compound 1 µM, first compound 10 µM): 1.01%
- viability, T/C [27]: 8.36%
- viability, T/C [28]: 4.7%
- viability, T/C [29]: 2.45%
- viability, T/C [30]: 1.84%
- viability, T/C (second compound 3.16 µM, first compound 3.16 µM): 3.64%
- viability, T/C (second compound 3.16 µM, first compound 10 µM): 0.74%
- viability, T/C [33]: 6.16%
- viability, T/C [34]: 2.81%
- viability, T/C [35]: 1.2%
- viability, T/C [36]: 0.66%
- viability, T/C (second compound 10 µM, first compound 3.16 µM): 0.3%
- viability, T/C (second compound 10 µM, first compound 10 µM): 0.16%

- IC50 (second compound 0.0316 µM): 20.9 nM
- IC50 (second compound 0.1 µM): 3.25 nM
- IC50 (second compound 0.316 µM): < 3.16 nM
- IC50 (second compound 1 µM): < 3.16 nM
- IC50 (second compound 3.16 µM): < 3.16 nM
- IC50 (second compound 10 µM): < 3.16 nM
SMILES: O=C(c1ccc(F)c(F)c1Nc1ccc(I)cc1F)N1CC(O)([C@@H]2CCCCN2)C1 + C#Cc1c(F)ccc2cc(O)cc(-c3ncc4c(N5CC6CCC(C5)N6)nc(OCC56CCCN5CC(F)C6)nc4c3F)c12
- viability, T/C [1]: 72.4%
- viability, T/C [2]: 56.3%
- viability, T/C [3]: 47.1%
- viability, T/C [4]: 15.4%
- viability, T/C [5]: 5.69%
- viability, T/C [6]: 6.25%
- viability, T/C [7]: 50%
- viability, T/C [8]: 40.8%
- viability, T/C [9]: 20%
- viability, T/C [10]: 9.26%
- viability, T/C [11]: 6.29%
- viability, T/C [12]: 3.94%
- viability, T/C [13]: 18.9%
- viability, T/C [14]: 17.5%
- viability, T/C [15]: 10.5%
- viability, T/C [16]: 9.19%
- viability, T/C [17]: 4.54%
- viability, T/C [18]: 3.72%
- viability, T/C [19]: 12.6%
- viability, T/C [20]: 9.81%
- viability, T/C [21]: 8.46%
- viability, T/C [22]: 6.3%
- viability, T/C [23]: 4.16%
- viability, T/C [24]: 3.53%
- viability, T/C [25]: 9%
- viability, T/C [26]: 9.32%
- viability, T/C [27]: 7.86%
- viability, T/C [28]: 5.98%
- viability, T/C [29]: 3.91%
- viability, T/C [30]: 3.32%
- viability, T/C [31]: 6.85%
- viability, T/C [32]: 7.33%
- viability, T/C [33]: 5.34%
- viability, T/C [34]: 3.85%
- viability, T/C [35]: 2.37%
- viability, T/C [36]: 1.61%
